Series [1] has as its target T1, BuChE (from equine serum) (Equus caballus, UniProt P81908).
T1 construct: butyrylcholinesterase (BuChE, E.C. 3.1.1.8) from equine serum and human serum; purchased Sigma-Aldrich (St. Louis, MO); host or cells: equine serum
Put plainly: biochemical. The series is classed as biochemical. To be noted: for IC50: means ± SD of three experiments.

For a further series, the target named is T2, human AChE (Homo sapiens, UniProt P22303).
T2 construct: Acetylcholinesterase (E.C. 3.1.1.7) from electric eel and human erythrocytes; purchased Sigma-Aldrich (St. Louis, MO); host or cells: human erythrocytes
T2 sequence (P22303 other isoform, or with tags, fused parts or gaps): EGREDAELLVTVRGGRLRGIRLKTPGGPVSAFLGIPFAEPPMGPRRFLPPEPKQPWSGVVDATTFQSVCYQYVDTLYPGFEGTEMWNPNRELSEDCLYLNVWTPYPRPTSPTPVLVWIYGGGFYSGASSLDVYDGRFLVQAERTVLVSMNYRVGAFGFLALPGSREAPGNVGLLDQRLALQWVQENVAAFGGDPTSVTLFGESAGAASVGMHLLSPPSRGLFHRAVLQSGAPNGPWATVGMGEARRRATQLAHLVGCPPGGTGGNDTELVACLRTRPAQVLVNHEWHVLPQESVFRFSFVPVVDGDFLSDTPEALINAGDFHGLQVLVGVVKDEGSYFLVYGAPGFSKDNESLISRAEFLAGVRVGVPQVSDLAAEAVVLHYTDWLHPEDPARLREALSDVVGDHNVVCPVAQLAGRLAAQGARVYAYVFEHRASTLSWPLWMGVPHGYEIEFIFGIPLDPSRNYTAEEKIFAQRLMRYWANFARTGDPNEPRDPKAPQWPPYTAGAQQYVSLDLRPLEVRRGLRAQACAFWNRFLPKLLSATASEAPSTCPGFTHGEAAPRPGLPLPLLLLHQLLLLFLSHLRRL
Briefly: biochemical. To be noted: means ± SD of three experiments; read-out: IC50 hAChE.

The target in the next series is T3, AChE (from electric eel) (Electrophorus electricus, UniProt O42275).
T3 construct: Acetylcholinesterase (E.C. 3.1.1.7) from electric eel and human erythrocytes; purchased Sigma-Aldrich (St. Louis, MO); host or cells: electric eel (natural source)
T3 sequence (O42275 24-633): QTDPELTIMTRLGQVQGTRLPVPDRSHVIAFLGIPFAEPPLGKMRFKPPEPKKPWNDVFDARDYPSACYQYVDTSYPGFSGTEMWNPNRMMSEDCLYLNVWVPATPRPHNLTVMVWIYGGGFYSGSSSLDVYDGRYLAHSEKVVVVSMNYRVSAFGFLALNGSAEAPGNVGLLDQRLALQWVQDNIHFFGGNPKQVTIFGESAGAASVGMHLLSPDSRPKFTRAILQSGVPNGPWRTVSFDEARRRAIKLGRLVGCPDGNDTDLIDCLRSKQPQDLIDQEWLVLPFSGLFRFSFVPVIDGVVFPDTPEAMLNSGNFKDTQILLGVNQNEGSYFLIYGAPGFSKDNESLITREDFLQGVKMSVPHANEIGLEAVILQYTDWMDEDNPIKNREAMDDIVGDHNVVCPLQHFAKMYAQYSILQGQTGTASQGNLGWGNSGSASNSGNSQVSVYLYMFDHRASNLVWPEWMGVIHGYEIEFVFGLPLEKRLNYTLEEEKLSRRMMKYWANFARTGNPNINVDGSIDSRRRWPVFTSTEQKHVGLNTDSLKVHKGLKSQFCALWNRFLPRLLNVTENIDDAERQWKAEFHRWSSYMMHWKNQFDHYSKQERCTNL
Briefly: biochemical. To be noted: means ± SD of three experiments; read-out: IC50 eeAChE.

The target of series [2] is T4, Aβ (1–42) (Homo sapiens, UniProt P05067). Briefly: Inhibition of Aβ (1–42) self-induced aggregation (Thioflavin T assay). To be noted: read-out: Aβ (1–42) aggregation inhibition (%).
T4 sequence (P05067 672-713): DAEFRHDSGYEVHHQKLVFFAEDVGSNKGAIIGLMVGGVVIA
For series [3], the target named is T4, Aβ (1–42). Briefly: Inhibition of Cu^2+-induced Aβ (1–42) aggregation (ThT assay). To be noted: Aβ 25 μM, compound 50 μM, Cu^2+ 25 μM, 37 °C, 24 h; read-out: Inhibition of Cu^2+-induced Aβ aggregation. The series is classed as biochemical. The procedure: The mixture of the peptide (10 μL, 25 μM, final concentration) with or without copper (10 μL, 25 μM, final concentration) and the test compound (10 μL, 50 μM, final concentration) were incubated at 37 °C for 24 h. The 20 μL of the sample was diluted to a final volume of 200 μL with […] glycine–NaOH buffer (pH 8.0) containing ThT (5 μM). The detection method was the same as that of self-induced Aβ aggregation experiment.

A further series is described as follows: in vitro. Details: Papp at 16 h: dose or concentration left out as unconfirmed. To be noted: PAMPA. The procedure:
Commercial drugs were purchased from Sigma (St. Louis, MO) and Alfa Aesar (Haverhill, MA). The porcine brain lipid (PBL) was obtained from Avanti Polar Lipids (Alabaster, AL). The donor microplate (PVDF membrane, pore size […]) and the acceptor microplate were both from Millipore (Darmstadt, Germany). The 96-well UV plate (COSTAR^@) was from Corning Incorporated (Harrodsburg, KY). The acceptor 96-well microplate was filled with 300 μL of PBS/EtOH (7:3), and the filter membrane was impregnated with 4 μL of PBL in dodecane (20 mg/mL). […] The […] was carefully placed on the donor plate to form a sandwich, which was left undisturbed for 16 h at 25 °C. After incubation, the donor plate was carefully removed and the concentration of compound in the acceptor wells was determined using an UV plate reader (Flexstation^@ 3). Every sample was analyzed at five wavelengths, in four wells, in at least three independent runs, and the results are given as the mean ± SD. In each experiment, nine quality control standards of known BBB permeability were included to validate the analysis set.
A general note: The PAMPA barrier holds no transporters, so it reflects passive diffusion.

The test system of the next series is AChE. To be noted: cited from earlier work.

These results are taken from publication PMC6009898 (Journal of Enzyme Inhibition and Medicinal Chemistry, 2017).

In general, IC50 refers to the midpoint of a concentration-inhibition curve. By inhibition is commonly meant the relative decrease from the control value, in per cent. One may read the Papp as a coefficient for how fast a substance crosses the barrier.

Molecules are shown by their SMILES. Read-outs that look alike come from different tables or passages of the source.

T1 sequence (P81908 whole entry): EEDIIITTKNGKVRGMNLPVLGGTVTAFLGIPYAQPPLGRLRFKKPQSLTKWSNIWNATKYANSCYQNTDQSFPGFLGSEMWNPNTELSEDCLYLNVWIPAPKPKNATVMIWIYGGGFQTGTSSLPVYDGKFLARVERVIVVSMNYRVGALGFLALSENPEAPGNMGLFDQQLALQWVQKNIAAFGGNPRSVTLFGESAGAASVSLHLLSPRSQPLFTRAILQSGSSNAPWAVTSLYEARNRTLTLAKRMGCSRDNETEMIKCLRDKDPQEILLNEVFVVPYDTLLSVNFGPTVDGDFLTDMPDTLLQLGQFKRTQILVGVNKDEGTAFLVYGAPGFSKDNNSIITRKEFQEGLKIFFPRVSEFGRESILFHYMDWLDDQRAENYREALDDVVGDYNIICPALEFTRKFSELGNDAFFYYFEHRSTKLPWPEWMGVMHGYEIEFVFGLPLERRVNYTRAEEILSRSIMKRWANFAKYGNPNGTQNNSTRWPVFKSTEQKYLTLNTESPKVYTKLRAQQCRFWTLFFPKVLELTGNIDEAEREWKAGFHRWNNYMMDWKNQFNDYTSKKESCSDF

On to `COc1ccc(/C=C/C(=O)Nc2cc[n+](Cc3cccc(Br)c3)cc2)cc1OC.[Br-]` [Compound 5m, (E)-1-(3-bromobenzyl)-4-(3-(3,4-dimethoxyphenyl)acrylamido) pyridin-1-ium bromide], for which the “ABTS assay (trolox equiv)” value is “N (N means <0.05)”. Besides, in series [1] (IC50 eqBuChE), 2.5 ± 0.6 µM corresponded to half-maximal inhibition (IC50). Further, the IC50 at human AChE was 0.0794 ± 0.0015 µM. For the same compound, on AChE (from electric eel), the IC50 is 0.0926 ± 0.009 µM. Moreover, the inhibition at 20 µM on Aβ (1–42) [2] was 62.8 ± 1.4%.
Consider `Oc1c(I)cc(Cl)c2cccnc12` [CQ, Clioquinol, reference compound], for which, on Aβ (1–42) [3], the inhibition at 50 µM was 60.2%.
In the case of `Cc1cccc(C[n+]2ccc(NC(=O)C=Cc3ccccc3)cc2)c1.[Br-]` [Compound 5b, 4-Cinnamamido-1-(3-methylbenzyl) pyridin-1-ium bromide], the “ABTS assay (trolox equiv)” value was “N (N means <0.05)”. Further, the IC50 in series [1] (IC50 eqBuChE) came to 8.1 ± 1.3 µM. For the same compound, the IC50 on AChE (from electric eel) is 0.103 ± 0.0096 µM. In addition, the inhibition at 20 µM on Aβ (1–42) [2] is 48.5 ± 1.8%.
For `COc1ccc(/C=C/C(=O)Nc2cc[n+](Cc3cccc(C)c3)cc2)cc1OC.[Br-]` [Compound 5i, (E)-4-(3-(3,4-dimethoxyphenyl)acrylamido)-1-(3-methylbenzyl) pyridin-1-ium bromide], the “ABTS assay (trolox equiv)” value was “N (N means <0.05)”. The compound also came in with an IC50 in series [1] (IC50 eqBuChE) of 2.7 ± 0.8 µM. For the same compound, the IC50 at human AChE was 0.0437 ± 0.0005 µM. Besides, the inhibition at 20 µM at Aβ (1–42) [2] came to 53.9 ± 0.9%.
Compound `CC(=O)[C@H]1CC[C@H]2[C@@H]3CCC4=CC(=O)CC[C@]4(C)[C@H]3CC[C@]12C` [Progesterone, reference compound] returned a Papp at 16 h in the series “in vitro” of 5.34 ×10⁻⁶ cm/s.
As to `[Br-].c1ccc(C[n+]2ccccc2)cc1` [benzyl pyridinium bromide], the AChE inhibition entry with AChE is recorded as “micromolar range”.
Turning to `O=C(C=Cc1ccccc1)Nc1cc[n+](Cc2cccc(Br)c2)cc1.[Br-]` [Compound 5f, 1-(3-Bromobenzyl)-4-cinnamamidopyridin-1-ium bromide], the “ABTS assay (trolox equiv)” value is reported as “N (N means <0.05)”. Further, it took 2.5 ± 0.3 µM to reach half-maximal inhibition in series [1] (IC50 eqBuChE) (IC50). The IC50 at AChE (from electric eel) came to 0.154 ± 0.0026 µM. Besides, the inhibition at 20 µM at Aβ (1–42) [2] was found to be 48.8 ± 2.1%.
For `O=C(C=Cc1ccccc1)Nc1cc[n+](Cc2ccc(F)cc2)cc1.[Br-]` [Compound 5e, 4-Cinnamamido-1-(4-fluorobenzyl) pyridin-1-ium bromide] the same measures were “N (N means <0.05)”, 10 ± 0.4 µM, 0.0908 ± 0.0092 µM and 52.8 ± 1.8%.
`COc1cc(/C=C/C(=O)CC(=O)/C=C/c2ccc(O)c(OC)c2)ccc1O` [Curcumin, reference compound]: at Aβ (1–42) [2], the inhibition at 20 µM worked out at 54.6 ± 2.6%.
In the case of `COc1ccc(/C=C/C(=O)Nc2cc[n+](Cc3ccccc3)cc2)cc1OC.[Br-]` [Compound 5h, (E)-1-benzyl-4-(3-(3,4-dimethoxyphenyl)acrylamido) pyridin-1-ium bromide], the “ABTS assay (trolox equiv)” value is “N (N means <0.05)”. In series [1] (IC50 eqBuChE), the IC50 stood at 4.5 ± 0.7 µM. Also, the IC50 on AChE (from electric eel) came to 0.135 ± 0.0048 µM. For the same compound, the inhibition at 20 µM on Aβ (1–42) [2] came out at 55.7 ± 3.2%.
Taken in the same sequence, the figures for `O=C(C=Cc1ccccc1)Nc1cc[n+](Cc2ccccc2)cc1.[Br-]` [Compound 5a, 1-Benzyl-4-cinnamamidopyridin-1-ium bromide] were “N^c (N means <0.05)”, 6.3 ± 0.6 µM, 0.0541 ± 0.0082 µM and 46.3 ± 1.6%.
For `O=C(C=Cc1ccccc1)Nc1cc[n+](Cc2ccc(Br)cc2)cc1.[Br-]` [Compound 5g, 1-(4-Bromobenzyl)-4-cinnamamidopyridin-1-ium bromide] the same measures were “N (N means <0.05)”, 2.1 ± 0.8 µM, 1.451 ± 0.0043 µM and 57.2 ± 1.1%.
For `O=C(C=Cc1ccccc1)Nc1cc[n+](Cc2cccc(F)c2)cc1.[Br-]` [Compound 5d, 4-Cinnamamido-1-(3-fluorobenzyl) pyridin-1-ium bromide] the same measures were “N (N means <0.05)”, 7.4 ± 0.5 µM, 0.0935 ± 0.0077 µM and 53.6 ± 2.3%.
Consider `O=C(O)/C=C/c1ccccc1` [Cinnamic acid, reference compound], for which the IC50 in series [1] (read-out: IC50 eqBuChE) was greater than 100 µM.
Take `COc1ccc(/C=C/C(=O)Nc2cc[n+](Cc3ccc(C)cc3)cc2)cc1OC.[Br-]` [Compound 5j, (E)-4-(3-(3,4-dimethoxyphenyl)acrylamido)-1-(4-methylbenzyl) pyridin-1-ium bromide]: the “ABTS assay (trolox equiv)” value is “N (N means <0.05)”. This compound also showed an IC50 in series [1] (IC50 eqBuChE) of 3.8 ± 0.9 µM. The IC50 at human AChE came out at 0.0965 ± 0.0028 µM. Further, the IC50 on AChE (from electric eel) was 0.0907 ± 0.0032 µM. Also, the inhibition at 20 µM at Aβ (1–42) [2] turned out to be 63.4 ± 2.8%.
Regarding `COc1ccc(/C=C/C(=O)Nc2cc[n+](Cc3ccc(Br)cc3)cc2)cc1OC.[Br-]` [Compound 5n, (E)-1-(4-bromobenzyl)-4-(3-(3,4-dimethoxyphenyl)acrylamido) pyridin-1-ium bromide], the “ABTS assay (trolox equiv)” value is listed as “N (N means <0.05)”. In series [1] (IC50 eqBuChE), this compound showed an IC50 of 1.9 ± 0.5 µM. The “Times more potent against BuChE than donepezil” value in series [1] (eqBuChE IC50 compared with donepezil) is given as 2.3 times. In addition, at human AChE, the IC50 was determined as 0.0511 ± 0.0048 µM. The IC50 on AChE (from electric eel) was 0.0503 ± 0.0083 µM. Also, the inhibition at 20 µM on Aβ (1–42) [2] is 66.3 ± 2.9%.
On to `Cc1ccc(C[n+]2ccc(NC(=O)C=Cc3ccccc3)cc2)cc1.[Br-]` [Compound 5c, 4-Cinnamamido-1-(4-methylbenzyl) pyridin-1-ium bromide], for which the “ABTS assay (trolox equiv)” value is recorded as “N (N means <0.05)”. In series [1] (IC50 eqBuChE), this compound returned an IC50 of 25 ± 0.7 µM. The IC50 at AChE (from electric eel) stood at 1.2638 ± 0.0012 µM. Further, the inhibition at 20 µM on Aβ (1–42) [2] turned out to be 55.1 ± 1.5%.
For `COc1ccc(/C=C/C(=O)Nc2cc[n+](Cc3cccc(F)c3)cc2)cc1OC.[Br-]` [Compound 5k, (E)-4-(3-(3,4-dimethoxyphenyl)acrylamido)-1-(3-fluorobenzyl) pyridin-1-ium bromide], the “ABTS assay (trolox equiv)” value was “N (N means <0.05)”. In series [1] (IC50 eqBuChE), this compound registered an IC50 of 3.1 ± 0.5 µM. In addition, the IC50 at human AChE worked out at 0.0192 ± 0.0016 µM. In addition, the half-inhibitory concentration (IC50) on AChE (from electric eel) worked out at 0.0206 ± 0.001 µM. Further, the inhibition at 20 µM at Aβ (1–42) [2] is 65.6 ± 2.3%.
